The results in this text go back to patent US20200016159A1, “N3-CYCLICALLY SUBSTITUTED THIENOURACILS AND USE THEREOF” (Bayer Aktiengesellschaft, priority 2016, published 2020).

The target in this assay is T1, human adenosine A2b receptor (Homo sapiens, UniProt P29275).
T1 sequence (P29275 1-332): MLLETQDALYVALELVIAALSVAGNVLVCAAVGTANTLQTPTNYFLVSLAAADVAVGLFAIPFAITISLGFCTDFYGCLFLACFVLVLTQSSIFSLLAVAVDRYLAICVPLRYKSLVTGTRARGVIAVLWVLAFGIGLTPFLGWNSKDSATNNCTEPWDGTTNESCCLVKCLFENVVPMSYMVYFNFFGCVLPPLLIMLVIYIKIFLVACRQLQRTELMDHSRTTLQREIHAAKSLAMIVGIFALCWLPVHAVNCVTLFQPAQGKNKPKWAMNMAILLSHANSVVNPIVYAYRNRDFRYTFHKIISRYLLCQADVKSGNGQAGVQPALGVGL
The assay is described as follows: Cellular in vitro reporter gene test for A2b receptor activity (antagonism of NECA). It counts as cell-based. Details: expressed in transfected cells; host or cells: CHO-K1 (Chinese hamster ovary) with CRE-luciferase reporter. As to conditions: recombinant CHO-K1 cells, CRE-luciferase reporter, co-incubation with EC50 concentration of NECA, 3 hours. As for the experimental part:
The identification of selective antagonists of the human adenosine A2b receptor and the quantification of the efficacy and selectivity of the compounds according to the invention was carried out with the aid of recombinant cell lines for the human adenosine receptors A1, A2a, A2b and A3. These cell lines were originally derived from an ovarepithelial cell of the hamster (Chinese Hamster Ovary, CHO-K1, American Type Culture Collection, Manassas, Va. 20108, USA). In addition to the respective recombinantly expressed adenosine receptor for testing the efficacy at the A1, A2a and A2b receptors, the cell lines contain a reporter gene construct where expression of the firefly (Photinus pyralis) luciferase is under the control of a promoter which can be activated via intracellular signal cascades by stimulation of the receptors with the (not subtype-selective) adenosine receptor agonist NECA (5′-N-ethylcarboxamidoadenosine) [S. J. Hill, J. G. Baker, S. Rhees, Curr. Opin. Pharmacol. 1, 526-532 (2001)].
In the case of the A2a and A2b cell lines, this is a minimal promoter having a plurality of cAMP-responsive elements (CRE). Stimulation of the Gs-coupled A2b or A2a receptors by NECA ultimately leads, via formation of cAMP, to CRE-dependent induction of luciferase expression, which is detected 3 hours after the start of the incubation with NECA using a detection solution in a suitable luminometer. For testing the antagonists, initially, in a pre-experiment, the concentration of NECA which, at the test day in question, results in half-maximum stimulation of luciferase expression (EC50 concentration) is determined. By joint incubation of this EC50 concentration of NECA with the substances to be tested, it is possible to determine their antagonistic activity.
Table 1 below lists the IC50 values from the A2b receptor assay for individual working examples (in some cases as means of a plurality of independent individual determinations and rounded to two significant figures; it may also be the case here that various independent preparations of the respective working example have been used): […]
For orientation: Reporter assays use an easily measured gene product as a stand-in for the process of interest.

For orientation: IC50 means the point on the concentration scale where inhibition reaches its midpoint. For the compound `CCC1(n2c(=O)c3c(C)c(Cn4nc[nH]c4=O)sc3n(CCC(F)(F)F)c2=O)CC1` [Example 107, 3-(1-Ethylcyclopropyl)-5-methyl-6-[(5-oxo-4,5-dihydro-1H-1,2,4-triazol-1-yl)methyl]-1-(3,3,3-trifluoropropyl)thieno[2,3-d]pyrimidine-2,4(1H,3H)-dione], the half-inhibitory concentration (IC50) turned out to be 290 nM.
The result for `Cc1c(Cn2nc[nH]c2=O)sc2c1c(=O)n(C1CC1)c(=O)n2CCF` [Example 196, 3-Cyclopropyl-1-(2-fluoroethyl)-5-methyl-6-[(5-oxo-4,5-dihydro-1H-1,2,4-triazol-1-yl)methyl]thieno[2,3-d]pyrimidine-2,4(1H,3H)-dione] reads 210 nM; that for `CCOCCn1c(=O)n(C2(C)CC2)c(=O)c2c(C)c(CN3CCNC3=O)sc21` [Example 77, 1-(2-Ethoxyethyl)-5-methyl-3-(1-methylcyclopropyl)-6-[(2-oxoimidazolidin-1-yl)methyl]thieno[2,3-d]pyrimidine-2,4(1H,3H)-dione], 77 nM.
On to `Cc1c(CN2CCNC2=O)sc2c1c(=O)n([C@H]1C[C@@H]1C)c(=O)n2CC1CCC(F)(F)C1` (stereo partly drawn) [Example 255, 1-[(3,3-Difluorocyclopenty)methy]-5-methyethyl-3-[(S,2S)-2-methylcyclopropyl]-6-[(2-oxoimidazolidin-1-yl)methyl]thieno[2,3-d]pyrimidine-2,4(1H,3H)-dione], for which the IC50 is 6.7 nM.
In the case of `COCCn1c(=O)n(C2CC3(CCC3)C2)c(=O)c2c(C)c(CN3CCNC(=O)C3=O)sc21` [Example 182, 6-[(2,3-Dioxopiperazin-1-yl)methyl]-1-(2-methoxyethyl)-5-methyl-3-(spiro[3.3]hept-2-yl)thieno[2,3-d]pyrimidine-2,4(1H,3H)-dione], the IC50 came out at 27 nM.
The same measure for `COCCn1c(=O)n(C2CC(F)(F)C2)c(=O)c2c(C)c(CN3CCNC3=O)sc21` [Example 125, 3-(3,3-Difluorocyclobutyl)-1-(2-methoxyethyl)-5-methyl-6-[(2-oxoimidazolidin-1-yl)methyl]thieno[2,3-d]pyrimidine-2,4(1H,3H)-dione]: 33 nM.
The result for `COCCn1c(=O)n(C2CC2)c(=O)c2c(C)c(Cn3nc[nH]c3=O)sc21` [Example 29, 3-Cyclopropyl-1-(2-methoxyethyl)-5-methyl-6-[(5-oxo-4,5-dihydro-1H-1,2,4-triazol-1-yl)methyl]thieno[2,3-d]pyrimidine-2,4(1H,3H)-dione] reads 57 nM; that for `Cc1c(CN2CCNC(=O)C2=O)sc2c1c(=O)n(C1CC1)c(=O)n2CC1CCCO1` (racemic) [Example 45, 3-Cyclopropyl-6-[(2,3-dioxopiperazin-1-yl)methyl]-5-methyl-1-(tetrahydrofuran-2-ylmethyl)thieno[2,3-d]pyrimidine-2,4(1H,3H)-dione], 110 nM; that for `Cc1c(CN2CCNC2=NC#N)sc2c1c(=O)n(C1CC1)c(=O)n2CC1CCCO1` (racemic) [Example 41, [1-{[3-Cyclopropyl-5-methyl-2,4-dioxo-1-(tetrahydrofuran-2-ylmethyl)-1,2,3,4-tetrahydrothieno[2,3-d]pyrimidin-6-yl]methyl}imidazolidin-2-ylidene]cyanamide], 16 nM.
The same measure for `Cc1c(Cn2nc[nH]c2=O)sc2c1c(=O)n(C1CC1)c(=O)n2CC1CC(F)(F)C1` [Example 206, 3-Cyclopropyl-1-[(3,3-difluorocyclobutyl)methyl]-5-methyl-6-[(5-oxo-4,5-dihydro-1H-1,2,4-triazol-1-yl)methyl]thieno[2,3-d]pyrimidine-2,4(1H,3H)-dione]: 6.2 nM.
Consider `COCCn1c(=O)n(C2CC2C)c(=O)c2c(C)c(CN3CCNC3=O)sc21` (single isomer, unassigned) [Example 95, 1-(2-Methoxyethyl)-5-methyl-3-(2-methylcyclopropyl)-6-[(2-oxoimidazolidin-1-yl)methyl]thieno[2,3-d]pyrimidine-2,4(1H,3H)-dione], for which the IC50 turned out to be 26 nM.
On to `Cc1c(CN2CCNC2=O)sc2c1c(=O)n(C1CC1C)c(=O)n2CCC(F)(F)C(F)F` (single isomer, unassigned) [Example 246, 5-Methyl-3-(2-methylcyclopropyl)-6-[(2-oxoimidazolidin-1-yl)methyl]-1-(3,3,4,4-tetrafluorobutyl)thieno[2,3-d]pyrimidine-2,4(1H,3H)-dione], for which the IC50 was 22 nM.
As for `COCCn1c(=O)n(C2CC(F)(F)C2)c(=O)c2c(C)c(CN3CCNC(=O)C3=O)sc21` [Example 128, 3-(3,3-Difluorocyclobutyl)-6-[(2,3-dioxopiperazin-1-yl)methyl]-1-(2-methoxyethyl)-5-methylthieno[2,3-d]pyrimidine-2,4(1H,3H)-dione], the concentration for half-maximal inhibition (IC50) came out at 36 nM.
The result for `CCC1CC1n1c(=O)c2c(C)c(Cn3nc[nH]c3=O)sc2n(CCOC)c1=O` (single isomer, unassigned) [Example 305, 3-(2-Ethylcyclopropyl)-1-(2-methoxyethyl)-5-methyl-6-[(5-oxo-4,5-dihydro-H-1,2,4-triazol-1-yl)methyl]thieno[2,3-d]pyrimidine-2,4(1H,3H)-dione] reads 120 nM.
The same measure for `CCCCn1c(=O)n([C@H]2C[C@@H]2C)c(=O)c2c(C)c(CN3CCNC3=O)sc21` [Example 230, 1-Butyl-5-methyl-3-[(1S,2S)-2-methylcyclopropyl]-6-[(2-oxoimidazolidin-1-yl)methyl]thieno[2,3-d]pyrimidine-2,4(1H,3H)-dione]: 1.3 nM.
The same measure for `Cc1c(CN2CCNC2=NC#N)sc2c1c(=O)n(C1(C)CC1)c(=O)n2CCC(F)(F)F` [Example 57, [1-{[5-Methyl-3-(1-methylcyclopropyl)-2,4-dioxo-1-(3,3,3-trifluoropropyl)-1,2,3,4-tetrahydrothieno[2,3-d]pyrimidin-6-yl]methyl}imidazolidin-2-ylidene]cyanamide]: 4.4 nM; for `COC(=O)N=C1NCCN1Cc1sc2c(c1C)c(=O)n(C1COC1)c(=O)n2CCC(F)(F)F` [Example 132, Methyl [1-{[5-methyl-3-(oxetan-3-yl)-2,4-dioxo-1-(3,3,3-trifluoropropyl)-1,2,3,4-tetrahydrothieno[2,3-d]pyrimidin-6-yl]methyl}imidazolidin-2-ylidene]carbamate]: 11 nM; for `Cc1c(Cn2nc[nH]c2=O)sc2c1c(=O)n([C@H]1C[C@@H]1C)c(=O)n2CC1CC1(F)F` (stereo partly drawn) [Example 326, 1-[(2,2-Difluorocyclopropyl)methyl]-5-methyl-3-[(1S,2S)-2-methylcyclopropyl]-6-[(5-oxo-4,5-dihydro-1H-1,2,4-triazol-1-yl)methyl]thieno[2,3-d]pyrimidine-2,4(1H,3H)-dione]: 17 nM.
Consider `CO[C@H]1C[C@H](n2c(=O)c3c(C)c(CN4CCNC(=O)C4=O)sc3n(CCC(F)(F)F)c2=O)C1` [Example 147, 6-[(2,3-Dioxopiperazin-1-yl)methyl]-3-(trans-3-methoxycyclobutyl)-5-methyl-1-(3,3,3-trifluoropropyl)thieno[2,3-d]pyrimidine-2,4(1H,3H)-dione], for which the IC50 is 48 nM.
The same measure for `COCCn1c(=O)n(C2(C)CC2)c(=O)c2c(C)c(Cn3cc[nH]c3=O)sc21` [Example 217, 1-(2-Methoxyethyl)-5-methyl-3-(1-methylcyclopropyl)-6-[(2-oxo-2,3-dihydro-1H-imidazol-1-yl)methyl]thieno[2,3-d]pyrimidine-2,4(1H,3H)-dione]: 38 nM.
